Assay [1] concerns the target T1, Retinal dehydrogenase 2 (Homo sapiens, UniProt O94788).
T1 sequence (O94788 whole entry): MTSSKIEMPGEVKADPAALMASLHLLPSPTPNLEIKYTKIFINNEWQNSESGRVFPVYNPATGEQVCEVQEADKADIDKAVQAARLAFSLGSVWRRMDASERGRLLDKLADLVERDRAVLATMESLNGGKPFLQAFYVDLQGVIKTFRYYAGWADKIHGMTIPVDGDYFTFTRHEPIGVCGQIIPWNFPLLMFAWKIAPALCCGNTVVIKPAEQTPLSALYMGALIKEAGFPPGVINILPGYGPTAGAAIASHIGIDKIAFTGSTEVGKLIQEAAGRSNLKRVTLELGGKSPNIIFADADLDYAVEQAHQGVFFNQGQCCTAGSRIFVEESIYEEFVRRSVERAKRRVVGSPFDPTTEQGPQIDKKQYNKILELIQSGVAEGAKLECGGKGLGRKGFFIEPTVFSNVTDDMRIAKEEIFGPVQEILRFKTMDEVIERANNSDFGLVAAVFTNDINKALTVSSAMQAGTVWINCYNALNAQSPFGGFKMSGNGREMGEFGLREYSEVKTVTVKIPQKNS
In words: Aldh1a2 Enzyme Inhibition Assay.

Assay [2] has as its target T2, Retinal dehydrogenase 2 (UniProt Q62148).
T2 sequence (Q62148 whole entry): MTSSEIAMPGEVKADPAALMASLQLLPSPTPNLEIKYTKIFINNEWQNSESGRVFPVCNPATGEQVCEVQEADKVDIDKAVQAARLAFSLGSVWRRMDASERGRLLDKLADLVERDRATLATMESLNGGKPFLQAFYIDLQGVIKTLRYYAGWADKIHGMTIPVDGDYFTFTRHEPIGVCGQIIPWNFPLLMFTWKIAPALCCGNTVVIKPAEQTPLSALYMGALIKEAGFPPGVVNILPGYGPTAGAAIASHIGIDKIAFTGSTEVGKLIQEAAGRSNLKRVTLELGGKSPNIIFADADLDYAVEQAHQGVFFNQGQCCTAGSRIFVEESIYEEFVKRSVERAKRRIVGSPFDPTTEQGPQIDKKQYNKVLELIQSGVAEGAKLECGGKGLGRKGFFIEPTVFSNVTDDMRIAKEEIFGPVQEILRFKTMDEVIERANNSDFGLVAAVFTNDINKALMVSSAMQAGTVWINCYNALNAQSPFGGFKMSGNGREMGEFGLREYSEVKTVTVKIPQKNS
The experiment in a line: Aldh1a2 Enzyme Inhibition Assay.

A value given as a limit tells only on which side of the number the result lay.

For the compound `CCC1COCCN1C(=O)Nc1cc(C)c2c(c1)CCC(=O)N2` (racemic) [US12054475, Compound 193], the IC50 against Retinal dehydrogenase 2 [1] and at Retinal dehydrogenase 2 [2] was above 10 µM throughout.

Usually IC50 stands for the concentration that inhibits the measured activity by half. A low value points to inhibition by little substance.

(Values after BindingDB's records for patent US12054475 (Kayothera, 2024).)
